Reference: patent US20250129121A1, “POLYPEPTIDE, PRODUCT INCLUDING POLYPEPTIDE FOR INHIBITING FUSOBACTERIUM NUCLEATUM, OR DRUG FOR PREVENTING COLORECTAL CANCER” (priority 2022, published 2025)
In brackets after ≈: the same amount, converted by molar mass. Where a SMILES comes first, the peptide text is derived from it.

Tests used:
[1] = tested on: Escherichia coli Nissile 1917; assay type: cell-based; conditions: Nissile 1917, 20 h
Procedure: (§1) A. Each polypeptide was prepared into a specified stock solution for later use. Minimum inhibitory concentrations (MICs) of the polypeptides P1 to P12 were determined by a broth microdilution method. With 0.01% acetic acid (including 0.2% of bovine serum albumin (BSA)) as a diluent, a series of gradient antimicrobial peptide solutions were prepared by a two-fold dilution method.
(§2) B. 100 μL of each polypeptide stock solution was taken and added to a 96-well cell culture plate, and then each strain solution to be tested (about 10^5/mL) was added in an equal volume to each well. A positive control (including a strain solution, but not including a polypeptide) and a negative control (including neither a strain solution nor a polypeptide). Strains to be tested include Escherichia coli Nissile 1917, Vibrio cholerae H1, Pseudomonas aeruginosa PAO1, F. nucleatum 25586, F. nucleatum 10953, Bifidobacterium uniformis 6597, Lactobacillus acidophilus 6075, Bifidobacterium longum 6194Lactobacillus rhamnosus 6141, and Streptococcus agalactiae H94.
(§3) C. The cell culture plate was incubated at a constant temperature of 37° C. for 20 h, and MIC was recorded when the turbidity was not observed by naked eyes at a bottom of a well. The strains all were purchased from the market.

[2] = tested on: Bifidobacterium longum 6194; assay type: cell-based; conditions: 20 h
Procedure: as §1, §2, §3

[3] = tested on: Pseudomonas aeruginosa PAO1; assay type: cell-based; conditions: PAO1, 20 h
Procedure: as §1, §2, §3

[4] = tested on: Lactobacillus rhamnosus 6141; assay type: cell-based; conditions: 20 h
Procedure: as §1, §2, §3

[5] = tested on: Bifidobacterium uniformis 6597; assay type: cell-based; conditions: 20 h
Procedure: as §1, §2, §3

[6] = tested on: Streptococcus agalactiae H94; assay type: cell-based; conditions: H94, 20 h
Procedure: as §1, §2, §3

[7] = tested on: Lactobacillus acidophilus 6075; assay type: cell-based; conditions: 20 h
Procedure: as §1, §2, §3

F. nucleatum 10953 = assay type: cell-based, Fusobacterium nucleatum; conditions: 10953, 20 h
Procedure: as §1, §2, §3

F. nucleatum 25586 = assay type: cell-based, Fusobacterium nucleatum; conditions: 25586, 20 h
Procedure: as §1, §2, §3

| Structure (SMILES) | MIC Escherichia coli nissile1917 [1] | MIC Bifidobacterium longum 6194 [2] | MIC Pseudomonas aeruginosa PAO1 [3] | MIC Lactobacterium rhamnosus 6141 [4] | MIC Bifidobacteriu muniformis 6597 [5] | MIC Streptococcus agalactiae H94 [6] | MIC Lactobacillus acidophilus 6075 [7] | MIC Fusobacterium nucleatum 10953 (F. nucleatum 10953) | MIC Fusobacterium nucleatum 25586 (F. nucleatum 25586) |
| --- | --- | --- | --- | --- | --- | --- | --- | --- | --- |
| N=C(N)NCCC[C@H](NC(=O)CNC(=O)[C@@H]1CCCN1C(=O)[C@H](CCCNC(=N)N)NC(=O)[C@H](Cc1c[nH]c2ccccc12)NC(=O)[C@H](CCCCN)NC(=O)[C@H](Cc1c[nH]c2ccccc12)NC(=O)[C@H](Cc1c[nH]c2ccccc12)NC(=O)[C@H](CCCCN)NC(=O)[C@H](Cc1c[nH]c2ccccc12)NC(=O)[C@H](CCCNC(=N)N)NC(=O)CNC(=O)[C@@H]1CCCN1C(=O)[C@H](CCCNC(=N)N)NC(=O)[C@H](Cc1c[nH]c2ccccc12)NC(=O)[C@H](CCCCN)NC(=O)[C@@H](N)Cc1c[nH]c2ccccc12)C(=O)N[C@@H](Cc1c[nH]c2ccccc12)C(=O)N[C@@H](CCCCN)C(=O)N[C@@H](Cc1c[nH]c2ccccc12)C(=O)O [P12] (H-WKWRPGRWKWWKWRPGRWKW-OH; N-terminus assumed) | 32 µM (≈ 94.5 µg/mL) | 16 µM (≈ 47.3 µg/mL) | 32 µM (≈ 94.5 µg/mL) | >64 µM | 64 µM (≈ 189 µg/mL) | 2 µM (≈ 5.91 µg/mL) | 32 µM (≈ 94.5 µg/mL) | 2 µM (≈ 5.91 µg/mL) | 2 µM (≈ 5.91 µg/mL) |
| N=C(N)NCCC[C@H](NC(=O)CNC(=O)[C@@H]1CCCN1C(=O)[C@H](CCCNC(=N)N)NC(=O)[C@H](Cc1c[nH]c2ccccc12)NC(=O)[C@H](Cc1c[nH]cn1)NC(=O)[C@@H](N)Cc1c[nH]c2ccccc12)C(=O)N[C@@H](Cc1c[nH]c2ccccc12)C(=O)N[C@@H](Cc1c[nH]cn1)C(=O)N[C@@H](Cc1c[nH]c2ccccc12)C(=O)O [P7, WHWRPGRWHW] (H-WHWRPGRWHW-OH; N-terminus assumed) | 64 µM (≈ 96.2 µg/mL) | >64 µM | >64 µM | 64 µM (≈ 96.2 µg/mL) | >64 µM | >64 µM | 32 µM (≈ 48.1 µg/mL) | 8 µM (≈ 12 µg/mL) | 64 µM (≈ 96.2 µg/mL) |
